# Experimental data taken from PubChem BioAssay AID1918999 (Molecular Pharmacology Branch, DTP, NCI, 2023).
# pIC50: −log10 of the molar value.
# System: 556581-035-R-J1-PDC complex spheroid growth
# Assay: Anticancer human tumor 556581-035-R-J1-PDC patient-derived ovarian carcinoma cell line growth inhibition [AhR]
# Details: for pIC50: curve of first compound; for viability, T/C: stronger effect = lower value
# Excerpt: Multicellular complex tumor spheroid response to aryl hydrocarbon receptor antagonists in combination with a variety of drugs and investigational agents in selected tumor cell lines
# The current study was undertaken to assess response to aryl hydrocarbon receptor antagonists in combination with standard-of-care drugs and investigational agents in solid tumor complex spheroid models. Complex spheroids include a stromal component modeled by human endothelial cells (HUVEC) and fibroblasts modeled by human mesenchymal stem cells (MSCs). The concentration ranges selected for each drug and investigational agent were based upon clinically achievable concentrations if the clinical Cmax of the agent was known.
# Compounds. The drugs and investigational agents: BAY 2416964 (NSC825713), GNF351 (NSC835774), CH-223191 (NSC835775), CPI-455 (NSC825282), aza-TdCyd (NSC777586), decitabine (NSC127716), belinostat (NSC758774), entinostat (NSC756642), pevonedistat (NSC761192), tazemetostat (NSC777109), talazoparib (NSC765396), olaparib (NSC753686), selinexor (NSC780203), nedisertib (M3814, NSC802822), bortezomib (NSC756655), venetoclax (NSC766270), doxorubicin (NSC123127), elimusertib (BAY189344, NSC800525), ceralasertib (AZD6738, NSC777638), TAK-243 (NSC785004), alisertib (NSC759677), etoposide (NSC141540), topotecan (NSC609699), eribulin (NSC707389), gemcitabine (NSC613327), carboplatin (NSC241240), cisplatin (NSC119875), and SN-38 (NSC673596) were obtained from the National Cancer Institute (NCI) Developmental Therapeutics Program Chemical Repository (32). The FDA-approved anticancer drug set is available from the Developmental Therapeutics Program at https://dtp.cancer.gov/organization/dscb/obtaining/available plates.htm. […] The stock solutions were prepared in dimethyl sulfoxide (DMSO, Sigma-Aldrich, St. Louis, MO, cat. D2650), except for the platinum compounds which were prepared in saline (Quality Biological, Gaithersburg, MD, cat. 114-055-101), at 800-fold the tested concentration and stored at -70 degrees C prior to their use. All drugs and investigational agents were tested over a range starting from a high concentration at or near the clinical Cmax and decreasing in half-log increments. If the clinical Cmax for an agent had not been determined, the highest concentration tested was 10 microM (Table 1).
# Cell Culture. All cells were maintained in an incubator at 37 degrees C and 5% CO2 with 95% humidity. The PDC lines were cultured according to standard operating procedures established by the NCI PDMR (https://pdmr.cancer.gov). Briefly, all PDCs were thawed and cultured in Matrigel-coated flasks prepared with a working solution of 1X Ham's F-12 nutrient mix, without supplementation (Invitrogen, Waltham, MA, cat. 11765054), 100 U/mL penicillin-streptomycin (Invitrogen, cat. 15140122), and 2.5% Matrigel (Corning Inc., Corning, NY, cat. 354248) for the first three passages. All PDCs were cultured in complete DMEM/F-12 media containing advanced DMEM/F-12 (Invitrogen, cat. 12634028), 4.9% defined fetal bovine serum, heat inactivated (HyClone Laboratories Inc., Logan, UT, cat. SH30070.03HI), 389 ng/mL hydrocortisone (Sigma-Aldrich, cat. H4001), 9.7 ng/mL human EGF recombinant protein (Invitrogen, cat. PHG0313), 23.4 microg/mL adenine (Sigma-Aldrich, cat. A2786), 97.3 U/mL penicillin-streptomycin (Invitrogen, cat. 15140122), 1.9 mM L-glutamine (Invitrogen, cat. 25030081), and 9.7 microM Y-27632 dihydrochloride (Tocris Bioscience, Bristol, United Kingdom, cat. 1254). The PDCs were cultured in complete DMEM/F12 media without 10 microM Y-27632 dihydrochloride for at least two passages prior to the screen. The established cell lines NCI-H1341 and […] were cultured in DMEM/F-12, HEPES (Invitrogen, cat. 11330032), 5% defined fetal bovine serum (HyClone Laboratories Inc., cat. SH30070.03), ITS premix universal culture supplement [insulin (5 microg/mL), transferrin (5 microg/mL), and selenious acid (5 ng/mL)] […]
# [1] = second compound 0.1 µM, first compound 0.0316 µM
# [2] = second compound 0.1 µM, first compound 0.1 µM
# [3] = second compound 0.316 µM, first compound 0.0316 µM
# [4] = second compound 0.316 µM, first compound 0.1 µM
# [5] = second compound 1 µM, first compound 0.0316 µM
# [6] = second compound 1 µM, first compound 0.1 µM
# [7] = second compound 3.16 µM, first compound 0.0316 µM
# [8] = second compound 3.16 µM, first compound 0.1 µM
# [9] = second compound 10 µM, first compound 0.0316 µM
# [10] = second compound 10 µM, first compound 0.1 µM
# 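Throughout, for viability, T/C: compound exposure lasted 7 days; 100% = DMSO vehicle control growth.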
compound,measurement,setting,value
CC[C@@]1(O)C(=O)OCc2c1cc1n(c2=O)Cc2cc3c(CN(C)C)c(O)ccc3nc2-1 + CC(CO)NC(=O)c1cc(-c2ccc(Cl)cc2)nn(-c2cnn(C)c2)c1=O,pIC50,second compound 0.1 µM,< 7.00
same,pIC50,second compound 0.316 µM,< 7.00
same,pIC50,second compound 1 µM,< 7.00
same,pIC50,second compound 3.16 µM,7.06
same,pIC50,second compound 10 µM,7.07
same,"viability, T/C","second compound 0.1 µM, first compound 0.000316 µM",102%
same,"viability, T/C","second compound 0.1 µM, first compound 0.001 µM",95.5%
same,"viability, T/C","second compound 0.1 µM, first compound 0.00316 µM",90.4%
same,"viability, T/C","second compound 0.1 µM, first compound 0.01 µM",86.8%
same,"viability, T/C",[1],69.7%
same,"viability, T/C",[2],51.7%
same,"viability, T/C","second compound 0.316 µM, first compound 0.000316 µM",97.2%
same,"viability, T/C","second compound 0.316 µM, first compound 0.001 µM",98%
same,"viability, T/C","second compound 0.316 µM, first compound 0.00316 µM",92.9%
same,"viability, T/C","second compound 0.316 µM, first compound 0.01 µM",80.6%
same,"viability, T/C",[3],69.5%
same,"viability, T/C",[4],58.6%
same,"viability, T/C","second compound 1 µM, first compound 0.000316 µM",101%
same,"viability, T/C","second compound 1 µM, first compound 0.001 µM",110%
same,"viability, T/C","second compound 1 µM, first compound 0.00316 µM",93.6%
same,"viability, T/C","second compound 1 µM, first compound 0.01 µM",80.8%
same,"viability, T/C",[5],75%
same,"viability, T/C",[6],57.3%
same,"viability, T/C","second compound 3.16 µM, first compound 0.000316 µM",90.5%
same,"viability, T/C","second compound 3.16 µM, first compound 0.001 µM",97%
same,"viability, T/C","second compound 3.16 µM, first compound 0.00316 µM",91.4%
same,"viability, T/C","second compound 3.16 µM, first compound 0.01 µM",78.2%
same,"viability, T/C",[7],65.9%
same,"viability, T/C",[8],47.8%
same,"viability, T/C","second compound 10 µM, first compound 0.000316 µM",100%
same,"viability, T/C","second compound 10 µM, first compound 0.001 µM",101%
same,"viability, T/C","second compound 10 µM, first compound 0.00316 µM",94.7%
same,"viability, T/C","second compound 10 µM, first compound 0.01 µM",93.2%
same,"viability, T/C",[9],70.5%
same,"viability, T/C",[10],46.5%
Nc1ccn(C2OC(CO)C(O)C2(F)F)c(=O)n1 (stereo not given) + CC(CO)NC(=O)c1cc(-c2ccc(Cl)cc2)nn(-c2cnn(C)c2)c1=O,pIC50,second compound 0.1 µM,> 7.50
same,pIC50,second compound 0.316 µM,> 7.50
same,pIC50,second compound 1 µM,> 7.50
same,pIC50,second compound 3.16 µM,> 7.50
same,pIC50,second compound 10 µM,> 7.50
same,"viability, T/C",[1],37%
same,"viability, T/C",[2],40.3%
same,"viability, T/C","second compound 0.1 µM, first compound 0.316 µM",35.8%
same,"viability, T/C","second compound 0.1 µM, first compound 1 µM",35.8%
same,"viability, T/C","second compound 0.1 µM, first compound 3.16 µM",37.5%
same,"viability, T/C","second compound 0.1 µM, first compound 10 µM",31.4%
same,"viability, T/C",[3],36.6%
same,"viability, T/C",[4],35.2%
same,"viability, T/C","second compound 0.316 µM, first compound 0.316 µM",39.2%
same,"viability, T/C","second compound 0.316 µM, first compound 1 µM",41.1%
same,"viability, T/C","second compound 0.316 µM, first compound 3.16 µM",32%
same,"viability, T/C","second compound 0.316 µM, first compound 10 µM",29.3%
same,"viability, T/C",[5],35%
same,"viability, T/C",[6],36.5%
same,"viability, T/C","second compound 1 µM, first compound 0.316 µM",36.5%
same,"viability, T/C","second compound 1 µM, first compound 1 µM",38.5%
same,"viability, T/C","second compound 1 µM, first compound 3.16 µM",36.2%
same,"viability, T/C","second compound 1 µM, first compound 10 µM",36.6%
same,"viability, T/C",[7],32.8%
same,"viability, T/C",[8],37.3%
same,"viability, T/C","second compound 3.16 µM, first compound 0.316 µM",36.2%
same,"viability, T/C","second compound 3.16 µM, first compound 1 µM",38.3%
same,"viability, T/C","second compound 3.16 µM, first compound 3.16 µM",35.5%
same,"viability, T/C","second compound 3.16 µM, first compound 10 µM",34.3%
same,"viability, T/C",[9],37.4%
same,"viability, T/C",[10],34.4%
same,"viability, T/C","second compound 10 µM, first compound 0.316 µM",42.5%
same,"viability, T/C","second compound 10 µM, first compound 1 µM",40.6%
same,"viability, T/C","second compound 10 µM, first compound 3.16 µM",39.6%
same,"viability, T/C","second compound 10 µM, first compound 10 µM",36%
